Results on 24 compounds are retold here after ChEMBL document CHEMBL1137933, “Pseudodeflectusin, a novel isochroman derivative from Aspergillus pseudodeflectus a parasite of the sea weed, Sargassum fusiform, as a selective human cancer cytotoxin” (Bioorg Med Chem Lett, 2004).

Structures are written as SMILES.

What is called IC50 is the point on the concentration scale where inhibition reaches its midpoint. Higher therefore signals lower potency.

In one test the target is Gamma-secretase. Nature of the test: Inhibition of human gamma-secretase activity. The test is classed as protein-complex assay.
Test [1] has as its system Mus musculus. Nature of the test: Compound was tested for reduction in Abeta-protein levels in brain of Tg2576 mice 3h after oral administration at 200 umol/kg. The test is classed as functional.
For test [2], the system named is Mus musculus. Nature of the test: Compound was tested for reduction in plasma level of Tg2576 mice 3h after oral administration at 200 umol/kg. The test is classed as functional.
Test [3] has as its system Mus musculus. The test is described as follows: Compound was tested for reduction in brain Abeta-protein level of Tg2576 mice 3h after oral administration at 200 umol/kg. The test is classed as functional.
Test [4] relates to Mus musculus. The test is described as follows: Compound was tested for reduction in Abeta-protein levels in plasma of Tg2576 beta-APP-swedish transgenic mice at a single dose of 200 umol/kg. The test is classed as functional.
For test [5], the system named is Mus musculus. The test is described as follows: Compound was tested for reduction in Abeta-protein levels in the CNS of Tg2576 beta-APP-swedish transgenic mice after oral administration. It counts as functional, Central nervous system.
The test system of test [6] is Mus musculus. Nature of the test: Compound was tested for reduction in Abeta-protein levels in brain after 3 hr in Tg2576 beta-APP-swedish transgenic mice at a single dose of 200 umol/kg. The test is classed as functional.

On Gamma-secretase, `CC(C)N1C(=O)c2ccccc2C(NC(=O)[C@H](C)NC(=O)Cc2cccc(F)c2)C(=O)N1C` (stereo not given in full) gave an IC50 of 57 nM. Same read-out and setting: the same measure for `C[C@H](NC(=O)Cc1cc(F)cc(F)c1)C(=O)NC1N=C(c2ccccc2)c2ccccc2N(C)C1=O` (stereo not given in full): 210 nM. `C[C@H](NC(=O)Cc1cc(F)cc(F)c1)C(=O)NC1C(=O)N(C)N(C)C(=O)c2ccccc21` (stereo not given in full) displayed an IC50 on Gamma-secretase of 5 nM. For the same compound, in the test with Mus musculus [1], the Reduction is 43%. Also, the Activity came out at 2987 nM in the test on Mus musculus [2] and 77 nM with Mus musculus [3]. Take `COc1cc(CC(=O)N[C@@H](C)C(=O)NC2C(=O)N(C)N(C(C)C)C(=O)c3ccccc32)cc(OC)c1` (stereo not given in full): at Gamma-secretase, the IC50 is above 2500 nM.

For the compound `CC(C)N1C(=O)c2ccccc2C(NC(=O)[C@H](C)NC(=O)Cc2cc(F)cc(F)c2)C(=O)N1C` (stereo not given in full), inhibition at Gamma-secretase was half-maximal at 47 nM (IC50). On Gamma-secretase, `CC(C)C[C@H](NC(=O)Cc1cc(F)cc(F)c1)C(=O)NC1C(=O)N(C)N(C(C)C)C(=O)c2ccccc21` (stereo not given in full) gave an IC50 of 37 nM. `CC(C)N1C(=O)c2ccccc2C(NC(=O)[C@H](C)NC(=O)Cc2ccccc2)C(=O)N1C` (stereo not given in full): the 50% inhibitory concentration (IC50) against Gamma-secretase was determined as 140 nM.

Consider `CC(C)C[C@H](NC(=O)Cc1cc(F)cc(F)c1)C(=O)NC1C(=O)N(C)C(c2ccccc2)=NC1(C)C` (stereo not given in full), for which the IC50 at Gamma-secretase was 1500 nM. As for `CC(C)N1C(=O)c2ccccc2C(NC(=O)[C@H](C)NC(=O)Cc2ccco2)C(=O)N1C` (stereo not given in full), half-maximal inhibition against Gamma-secretase (IC50) was put at 86 nM. Compound `CC(C)[C@H](NC(=O)Cc1cc(F)cc(F)c1)C(=O)NC1C(=O)N(C)N(C(C)C)C(=O)c2ccccc21` (stereo not given in full) gave an IC50 against Gamma-secretase of 190 nM. In turn, `CC(C)N1C(=O)c2ccccc2C(NC(=O)[C@H](C)NC(=O)Cc2ccncc2)C(=O)N1C` (stereo not given in full) yielded an IC50 at Gamma-secretase above 2500 nM.

With `CC(C)N1C(=O)c2ccccc2C(NC(=O)[C@H](C)NC(=O)Cc2cccc3ccccc23)C(=O)N1C` (stereo not given in full), the IC50 against Gamma-secretase was above 2500 nM. For the compound `CC(C)C[C@H](NC(=O)[C@@H](O)c1ccccc1)C(=O)N[C@H]1c2ccccc2C[C@H]1O`, half-maximal inhibition against Gamma-secretase (IC50) was put at 71 nM. In the case of `CC(C)N1C(=O)c2ccccc2C(NC(=O)[C@H](C)NC(=O)Cc2cccnc2)C(=O)N1C` (stereo not given in full), on Gamma-secretase, the IC50 is above 2500 nM.

On Gamma-secretase, `CC(C)N1C(=O)c2ccccc2C(NC(=O)[C@H](C)NC(=O)Cc2ccoc2)C(=O)N1C` (stereo not given in full) had an IC50 of 38 nM. On the same count and under the same terms, to `CC(C)N1C(=O)c2ccccc2C(NC(=O)[C@H](C)NC(=O)CC2CCCCC2)C(=O)N1C` (stereo not given in full) belongs 150 nM.

At Gamma-secretase, `CC(C)C[C@H](NC(=O)Cc1cc(F)cc(F)c1)C(=O)Nc1cnc(-c2ccccc2)n(C)c1=O` displayed an IC50 of 720 nM. The compound `CC(C)N1C(=O)c2ccccc2C(NC(=O)[C@H](C)NC(=O)Cc2ccsc2)C(=O)N1C` (stereo not given in full) displayed a 50% inhibitory concentration (IC50) against Gamma-secretase of 14 nM. On the same count and under the same terms, to `CC(C)C[C@H](NC(=O)Cc1ccsc1)C(=O)NC1C(=O)N(C)N(C(C)C)C(=O)c2ccccc21` (stereo not given in full) belongs 4 nM. Regarding `CCCCN(C)C(=O)[C@H](CC1CCCCC1)NC(=O)[C@H](CC(C)C)NC(=O)Cc1cc(F)cc(F)c1`, at Gamma-secretase, the IC50 came to 6 nM.

`CC(C)N1C(=O)c2ccccc2C(NC(=O)[C@H](C)NC(=O)Cc2cc(C(F)(F)F)cc(C(F)(F)F)c2)C(=O)N1C` (stereo not given in full) registered an IC50 on Gamma-secretase above 2500 nM. Turning to `C[C@H](NC(=O)Cc1cc(F)cc(F)c1)C(=O)NC1C(=O)N(C)c2ccccc2-c2ccccc21` (stereo not given in full), the IC50 on Gamma-secretase turned out to be 76 nM. With `CC(C)N1C(=O)c2ccccc2C(NC(=O)[C@H](C)NC(=O)[C@@H](O)c2cc(F)cc(F)c2)C(=O)N1C` (stereo not given in full), the IC50 on Gamma-secretase came to 5 nM. `CCCCN(C)C(=O)[C@H](CC1CCCCC1)NC(=O)[C@H](CC(C)C)NC(=O)[C@@H](O)c1ccccc1`: the Activity in the test on Mus musculus [4] came to 1833 nM; with Mus musculus [6], 65 nM. Further, at Gamma-secretase, the IC50 was found to be 1 nM. In the test on Mus musculus [5], the Reduction stood at 15%.
